Experimental data reported in patent EP0450097B1, “BENZOHETEROCYCLIC COMPOUNDS” (OTSUKA PHARMACEUTICAL CO., LTD., priority 1989, dated 1991).

Tests used:
V₂ receptor = biological target: T1, V₂ receptor (Rattus norvegicus, UniProt Q00788); experiment: V₂ receptor binding assay ([³H]-Arg-vasopressin, rat kidney plasma membrane preparations); details: 4°C for 3 hours
T1 construct: Using rat kidney plasma membrane preparations; from tissue; host or cells: rat kidney plasma membranes
How it was run: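 IC₅₀ reflects displacement of [³H]-vasopressin bound to rat kidney plasma membrane preparations, with excess vasopressin (10⁻⁶ M) defining nonspecific binding. Membrane-bound label separated by glass-filter (GF/F) filtration and measured by scintillation counting.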

SD rats = experiment: Anti-antidiuretic activity (effect on endogenous ADH), amount of urine; assay type: in vivo; details: for ED (3-fold urine volume): Rattus norvegicus, iv, read-out: ED₃
From the text: […] During this measurement, the rats are allowed to take water and feed freely.
The amount of urine of control rats (solvent-treated group) is regarded as 100 %, and the results are expressed as ED₃ value, which is the dose of the test compound to be required to excrete the urine by three times than that of the control rats.

V₁ receptor = biological target: T2, V₁ receptor (Rattus norvegicus, UniProt P30560); experiment: V₁ receptor binding assay ([³H]-Arg-vasopressin, rat liver plasma membrane preparations); details: 37°C for 10 minutes
T2 construct: Using rat liver plasma membrane preparations; from tissue; host or cells: rat liver plasma membranes
Description: Using rat liver plasma membrane preparations prepared according to Ichihara's method [cf: Akira Ichihara, J. Bio. Chem., 258, 9283 (1983)], the plasma membrane (50000dpm, 2x10⁻¹⁰ M) of [³H]-Arg-vasopressin and a test compound (60 µg, 10⁻⁸-10⁻⁴ M) are incubated at 37°C for 10 minutes in 100 mM Tris-HCl buffer (pH: 8.0, 250 µl) containing 5 mM MgCl₂, 1 mM EDTA and 0.1 % BSA. After incubation, the mixture is filtered three times using the glass filter (GF/F) so as to separate the membrane preparation combined with vasopressin and then washed with the buffer (5 ml). This glass filter is taken out and mixed with liquid scintillation cocktail. The amount of [³H]-vasopressin combined with the membrane is measured by liquid scintillation counter and the rate of the inhibitory effect of the test compound is estimated according to the following equation. Rate of the inhibitory effect (%) = 100 -(C1 - B1)/(C0 - B1)X 100 [formula] C¹: The amount of [³H]-vasopressin combined with the membrane in the presence of the test compound (in prescribed amount). C⁰: The amount of [³H]-vasopressin combined with the membrane in the absence of the test compound. B¹: The amount of [³H]-vasopressin combined with the membrane in the presence of the excess amount of vasopressin (10⁻⁶ M).
The results are expressed as IC₅₀ values, which is the concentration of the test compound required to achieve the inhibitory effect in the rate of 50 %.

[1] = administered into a caudal vein, urine collected for 2 hours, dose to excrete the urine by three times that of control rats, solvent dimethylformamide

T2 sequence (P30560 whole entry): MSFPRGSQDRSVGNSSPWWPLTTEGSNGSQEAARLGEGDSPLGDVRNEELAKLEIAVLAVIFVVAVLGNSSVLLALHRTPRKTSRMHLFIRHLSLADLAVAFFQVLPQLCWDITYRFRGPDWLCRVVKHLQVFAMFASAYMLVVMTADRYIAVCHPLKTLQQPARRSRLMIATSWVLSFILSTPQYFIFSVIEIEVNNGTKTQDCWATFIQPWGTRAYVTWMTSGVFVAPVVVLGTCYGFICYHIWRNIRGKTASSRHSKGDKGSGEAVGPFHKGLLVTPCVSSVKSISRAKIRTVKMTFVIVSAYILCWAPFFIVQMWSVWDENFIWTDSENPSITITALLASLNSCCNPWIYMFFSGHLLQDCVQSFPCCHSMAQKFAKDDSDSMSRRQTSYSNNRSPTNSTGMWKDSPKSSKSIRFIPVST
T1 sequence (Q00788 whole entry): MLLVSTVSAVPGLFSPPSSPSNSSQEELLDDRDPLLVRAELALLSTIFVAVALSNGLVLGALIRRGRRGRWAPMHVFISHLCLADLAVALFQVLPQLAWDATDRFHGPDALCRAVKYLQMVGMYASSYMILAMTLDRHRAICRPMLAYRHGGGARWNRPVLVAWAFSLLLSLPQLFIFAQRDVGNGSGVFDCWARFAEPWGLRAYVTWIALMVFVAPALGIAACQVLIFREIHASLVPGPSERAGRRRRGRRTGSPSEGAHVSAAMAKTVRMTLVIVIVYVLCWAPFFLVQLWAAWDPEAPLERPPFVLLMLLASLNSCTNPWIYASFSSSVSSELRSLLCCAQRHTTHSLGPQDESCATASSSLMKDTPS

SMILES	IC50 (V₂ receptor)	IC50 (V₁ receptor)	ED (3-fold urine volume) (SD rats; [1])	ED₃ (SD rats; [1])	ED₃ (SD rats; as E3, but physiological saline solution used as solvent instead of dimethylformamide)
Cc1cccc(C(=O)Nc2ccc(C(=O)N3CCCc4ccccc43)cc2)c1C [compound 6]	0.076 µM		10 mg/kg		
Cc1ccccc1C(=O)Nc1ccc(C(=O)N2CCCC(N(C)C)c3ccccc32)cc1 (stereo not shown) [compound 249]					0.4 ^*) mg/kg
Cc1ccccc1C(=O)Nc1ccc(C(=O)N2CCCC(OCC(=O)N3CCN(C)CC3)c3ccccc32)cc1 (stereo not shown) [compound 277]	0.016 µM	0.23 µM			
Cc1ccccc1C(=O)Nc1ccc(C(=O)N2CCCC(NC(=O)Nc3ccccc3)c3ccccc32)cc1 (stereo not shown) [compound 280]	0.045 µM	0.47 µM			
Cc1ccccc1C(=O)Nc1ccc(C(=O)N2CCCC(OCC(=O)N3CCCC3C(N)=O)c3ccccc32)cc1 (stereo not shown) [compound 284]	0.019 µM	0.29 µM			
Cc1ccccc1C(=O)Nc1ccc(C(=O)N2CCCC(OCC(=O)N3CCS(=O)(=O)CC3)c3ccccc32)cc1 (stereo not shown) [compound 286]	0.019 µM	0.4 µM			
Cc1ccccc1C(=O)Nc1ccc(C(=O)N2CCCC(OCC(=O)NCc3ccncc3)c3ccccc32)cc1 (stereo not shown) [compound 290]	0.021 µM	0.21 µM			
Cc1ccccc1C(=O)Nc1ccc(C(=O)N2CCCC(OCC(=O)N(C)CCO)c3ccccc32)cc1 (stereo not shown) [compound 293]	0.065 µM	0.19 µM			
CN(C)c1ccccc1C(=O)Nc1ccc(C(=O)N2CCCC(N(C)C)c3ccccc32)cc1 (stereo not shown) [compound 298]	0.1 µM	0.29 µM			
Cc1ccccc1C(=O)Nc1ccc(C(=O)N2CCCC(N(C)C)c3cc(Cl)ccc32)cc1 (stereo not shown) [compound 303]	0.025 µM	0.19 µM			
CN(C)C1CCCN(C(=O)c2ccc(NC(=O)c3ccccc3Cl)cc2)c2ccc(Cl)cc21 (stereo not shown) [compound 304]	0.024 µM	0.21 µM			
CCN(CC(=O)Nc1ccc(C(=O)N2CCCC(N(C)C)c3cc(Cl)ccc32)cc1)c1ccccc1 (stereo not shown) [compound 308]	0.023 µM	0.11 µM			
CC(C)NCCCCOc1ccccc1C(=O)Nc1ccc(C(=O)N2CCCC(O)c3ccccc32)cc1 (stereo not shown) [compound 312]	0.29 µM	0.056 µM			
CN(C)C1CCCN(C(=O)c2ccc(NC(=O)CNc3ccccc3Cl)cc2)c2ccccc21 (stereo not shown) [compound 315]	0.025 µM	0.38 µM			
Cc1ccccc1NCC(=O)Nc1ccc(C(=O)N2CCCC(N(C)C)c3ccccc32)cc1 (stereo not shown) [compound 316]	0.06 µM	0.47 µM			
COc1cc(C(=O)N2CCCC(NC3CC3)c3cc(Cl)ccc32)ccc1NC(=O)c1ccccc1Cl (stereo not shown) [compound 322]	0.025 µM	0.044 µM			

The remaining molecules from weak to strong by IC50 (V₂ receptor), led by results:

IC50 (V₂ receptor)	IC50 (V₁ receptor)	SMILES	ED (3-fold urine volume) (SD rats; [1])	ED₃ (SD rats; [1])	ED₃ (SD rats; as E3, but physiological saline solution used as solvent instead of dimethylformamide)
0.015 µM	0.26 µM	CC(=O)N1CCN(C(=O)COC2CCCN(C(=O)c3ccc(NC(=O)c4ccccc4C)cc3)c3ccccc32)CC1 (stereo not shown) [compound 288]			
0.015 µM	0.43 µM	CN(C)C1CCCN(C(=O)c2ccc(NC(=O)c3ccccc3Br)cc2)c2ccccc21 (stereo not shown) [compound 309]			
0.014 µM	0.064 µM	CNC1CCCN(C(=O)c2ccc(NC(=O)c3ccccc3C)c(OC)c2)c2ccc(Cl)cc21 (stereo not shown) [compound 323]			
0.013 µM	0.3 µM	Cc1ccccc1C(=O)Nc1ccc(C(=O)N2CCCC(OCC(=O)N3CCOCC3)c3ccccc32)cc1 (stereo not shown) [compound 278]			
0.013 µM	0.078 µM	O=C(Nc1ccc(C(=O)N2CCCC(NC3CC3)c3cc(Cl)ccc32)cc1)c1ccccc1Cl (stereo not shown) [compound 311]			
0.012 µM		O=C(Nc1ccc(C(=O)N2CCCC(O)c3ccccc32)cc1)c1cc(Cl)cc(Cl)c1 (stereo not shown) [compound 178]		4.2 mg/kg	
0.012 µM	0.032 µM	CCN(CC(=O)Nc1ccc(C(=O)N2CCCC(OCC(=O)N(C)C)c3ccccc32)cc1)c1ccccc1 (stereo not shown) [compound 313]			
0.012 µM	0.059 µM	CNC1CCCN(C(=O)c2ccc(NC(=O)c3ccccc3Cl)c(OC)c2)c2ccc(Cl)cc21 (stereo not shown) [compound 321]			
0.011 µM	0.18 µM	Cc1ccccc1C(=O)Nc1ccc(C(=O)N2CCCC(OCC(=O)N3CC[S+]([O-])CC3)c3ccccc32)cc1 (stereo not shown) [compound 281]			
0.011 µM	0.071 µM	CNC1CCCN(C(=O)c2ccc(NC(=O)c3ccccc3Cl)cc2)c2ccc(Cl)cc21 (stereo not shown) [compound 302]			
0.01 µM	0.024 µM	CCN(CC(=O)Nc1ccc(C(=O)N2CCCC(NC)c3cc(Cl)ccc32)cc1)c1ccccc1 (stereo not shown) [compound 307]			
0.008 µM	0.15 µM	Cc1ccccc1C(=O)Nc1ccc(C(=O)N2CCCC(OCC(=O)N3CCSCC3)c3ccccc32)cc1 (stereo not shown) [compound 279]			
0.008 µM	0.18 µM	Cc1ccccc1C(=O)Nc1ccc(C(=O)N2CCCC(OCC(=O)NCC(N)=O)c3ccccc32)cc1 (stereo not shown) [compound 285]			
0.008 µM	0.065 µM	Cc1ccccc1C(=O)Nc1ccc(C(=O)N2CCCC(NC3CC3)c3cc(Cl)ccc32)cc1 (stereo not shown) [compound 310]			
0.007 µM	0.092 µM	Cc1cccc(C(=O)Nc2ccc(C(=O)N3CCCCc4ccccc43)cc2)c1C [compound 33]	1.9 mg/kg		
0.007 µM	0.064 µM	CNC1CCCN(C(=O)c2ccc(NC(=O)c3ccccc3C)cc2)c2ccc(Cl)cc21 (stereo not shown) [compound 287]			
